This note sets out measurements from patent publication US20250382344A1, “Soluble GLP1/GIP/NPY2 Receptor Triple Agonists” (Boehringer Ingelheim International GmH, priority 2024, published 2025).

For orientation: solubility means the concentration that dissolves in the medium under given conditions.

SMILES strings stand for the structures. Where two headings read alike, the source gives them in different places.

Data set [1] concerns the target T1, hGLP1R (Homo sapiens, UniProt P43220).
T1 construct: expressed in transfected cells; host or cells: HEK-293 CRE-luciferase reporter cells
The experiment in a line: hGLP1R CreLuc assay in 0.5% and 100% plasma (HEK-293 CRE-luciferase reporter cells). In kind it is cell-based. Particulars: HEK-293 reporter cells. On the technique in general: A reporter such as luciferase makes a cellular process visible.

Data set [2] is described as follows: Solubility in 0.1 M phosphate buffer at pH 7. In kind it is physicochemical. To be noted: 0.1 M phosphate buffer at pH 7, 10 mg/mL final peptide concentration, shaking 2 hours at room temperature, peptides as TFA-salts; measured sample pH 6.5-7.0.
For data set [3], the target named is T2, hGIPR (Homo sapiens, UniProt P48546).
T2 construct: expressed in transfected cells; host or cells: CHO CRE-luciferase reporter cells
T2 sequence (P48546 22-466): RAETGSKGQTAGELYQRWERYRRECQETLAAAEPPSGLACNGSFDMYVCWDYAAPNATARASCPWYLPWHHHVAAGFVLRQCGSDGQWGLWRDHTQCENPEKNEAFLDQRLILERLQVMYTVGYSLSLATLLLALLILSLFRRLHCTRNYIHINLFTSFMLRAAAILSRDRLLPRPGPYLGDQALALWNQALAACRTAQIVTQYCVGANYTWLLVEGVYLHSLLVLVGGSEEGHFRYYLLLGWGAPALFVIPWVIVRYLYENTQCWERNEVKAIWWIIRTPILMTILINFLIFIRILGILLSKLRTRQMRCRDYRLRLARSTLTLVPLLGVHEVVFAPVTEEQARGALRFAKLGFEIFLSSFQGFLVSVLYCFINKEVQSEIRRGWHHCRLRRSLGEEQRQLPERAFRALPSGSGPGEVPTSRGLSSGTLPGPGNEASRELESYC
The data set is described as follows: hGIPR CreLuc assay in 0.5% and 100% plasma (CHO CRE-luciferase reporter cells). In kind it is cell-based. Particulars: 0.5% human plasma, read-out: hGIPR 0.5% hP.

The target of data set [4] is T3, hNPY2R (Homo sapiens, UniProt P49146).
T3 construct: expressed in transfected cells; host or cells: HEK-293 CRE-luciferase reporter cells
T3 sequence (P49146 1-381): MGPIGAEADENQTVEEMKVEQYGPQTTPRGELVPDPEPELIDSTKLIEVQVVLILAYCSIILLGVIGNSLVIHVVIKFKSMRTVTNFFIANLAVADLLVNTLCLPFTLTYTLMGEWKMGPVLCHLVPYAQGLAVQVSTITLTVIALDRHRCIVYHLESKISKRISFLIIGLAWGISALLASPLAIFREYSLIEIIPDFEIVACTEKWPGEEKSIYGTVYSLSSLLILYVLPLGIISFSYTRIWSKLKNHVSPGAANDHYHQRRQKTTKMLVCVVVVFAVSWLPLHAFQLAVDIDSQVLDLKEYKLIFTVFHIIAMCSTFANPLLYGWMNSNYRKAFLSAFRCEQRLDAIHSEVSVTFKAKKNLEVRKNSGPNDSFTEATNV
The data set is described as follows: hNPY2R CreLuc assay in 0.5% and 100% plasma (HEK-293 CRE-luciferase reporter cells). Particulars: HEK-293 reporter cells. In kind it is cell-based.

Where [5] appears, read: 0.5% human plasma, read-out: hGLP1R 0.5% hP.
Where [6] appears, read: 100% human plasma, read-out: hNPY2R 100% hP.
[7] abbreviates: 100% human plasma, read-out: hGLP1R 100% hP.
The mark [8] stands for this setting: 0.5% human plasma, read-out: hNPY2R 0.5% hP.

T1 sequence (P43220 24-463): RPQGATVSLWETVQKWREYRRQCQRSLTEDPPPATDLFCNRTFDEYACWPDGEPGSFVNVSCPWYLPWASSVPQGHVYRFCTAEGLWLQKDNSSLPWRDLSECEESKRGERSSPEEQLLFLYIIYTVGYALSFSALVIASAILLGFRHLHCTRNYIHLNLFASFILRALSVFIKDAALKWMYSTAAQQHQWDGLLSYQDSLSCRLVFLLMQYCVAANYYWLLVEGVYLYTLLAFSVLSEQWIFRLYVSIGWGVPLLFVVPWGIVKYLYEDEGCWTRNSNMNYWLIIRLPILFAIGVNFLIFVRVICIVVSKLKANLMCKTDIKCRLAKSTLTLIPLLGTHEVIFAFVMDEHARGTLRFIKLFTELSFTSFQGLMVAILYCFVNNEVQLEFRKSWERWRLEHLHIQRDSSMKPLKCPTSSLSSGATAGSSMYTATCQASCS

`CC[C@H](C)[C@H](NC(=O)[C@H](CC(C)C)NC(=O)[C@H](Cc1c[nH]cn1)NC(=O)[C@H](CCCNC(=N)N)NC(=O)[C@@H](NC(=O)[C@H](Cc1ccccc1)NC(=O)[C@H](C)NC(=O)C(C)(C)NC(=O)[C@H](CCC(N)=O)NC(=O)[C@H](C)NC(=O)[C@H](CCC(N)=O)NC(=O)[C@H](CCCCN)NC(=O)[C@H](CCC(=O)O)NC(=O)[C@H](CC(C)C)NC(=O)C(C)(C)NC(=O)[C@@H](NC(=O)[C@H](CO)NC(=O)[C@H](Cc1ccc(O)cc1)NC(=O)[C@H](CC(=O)O)NC(=O)[C@H](CO)NC(=O)[C@@H](NC(=O)[C@H](Cc1ccccc1)NC(=O)[C@@H](NC(=O)CNC(=O)[C@H](CCC(=O)O)NC(=O)C(C)(C)NC(=O)[C@@H](N)Cc1ccc(O)cc1)[C@@H](C)O)[C@@H](C)O)[C@@H](C)CC)C(C)C)C(=O)N[C@@H](CC(N)=O)C(=O)N[C@@H](CCCCNC(=O)[C@@H](N)CCCNC(=O)CC[C@H](NC(=O)CC[C@H](NC(=O)CC[C@H](NC(=O)CC[C@H](NC(=O)CC[C@H](NC(=O)CC[C@H](NC(=O)CCCCCCCCCCCCCCCCCCC(=O)O)C(=O)O)C(=O)O)C(=O)O)C(=O)O)C(=O)O)C(=O)O)C(=O)NC(C)(C)C(=O)N[C@H](C(=O)N[C@@H](CCCNC(=N)N)C(=O)N[C@@H](CCC(N)=O)C(=O)N[C@@H](CCCNC(=N)N)C(=O)N[C@@H](Cc1ccc(O)cc1)C(N)=O)[C@@H](C)O` [Compound 97, Y-Aib-E-G-T-F-T-S-D-Y-S-I-Aib-L-E-K-Q-A-Q-Aib-A-F-V-R-H-L-I-N-K(1,3)-Aib-T-R-Q-R-Y-NH2.C20DA-gGlu-gGlu-gGlu-gGlu-gGlu-gGlu-dtOrn(1,2)]: the results for the EC50 in data set [1] (setting [5]), in data set [3] and in data set [4] (setting [6]) were 3.8 nM, 0.6 nM and 135 nM, respectively. Further, in data set [2], the solubility at 2 h is 4700 µg/mL.
Turning to `CC[C@H](C)[C@H](NC(=O)[C@H](CC(C)C)NC(=O)[C@H](Cc1c[nH]cn1)NC(=O)[C@H](CCCNC(=N)N)NC(=O)[C@@H](NC(=O)[C@H](Cc1ccccc1)NC(=O)[C@H](C)NC(=O)C(C)(C)NC(=O)[C@H](CCC(=O)O)NC(=O)[C@H](C)NC(=O)[C@H](CCC(N)=O)NC(=O)[C@H](CCCCN)NC(=O)[C@H](CCC(=O)O)NC(=O)[C@H](CC(C)C)NC(=O)[C@](C)(CC(C)C)NC(=O)[C@@H](NC(=O)[C@H](CO)NC(=O)[C@H](Cc1ccc(O)cc1)NC(=O)[C@H](CC(=O)O)NC(=O)[C@H](CO)NC(=O)[C@@H](NC(=O)[C@H](Cc1ccccc1)NC(=O)[C@@H](NC(=O)CNC(=O)[C@H](CCC(=O)O)NC(=O)C(C)(C)NC(=O)[C@@H](N)Cc1ccc(O)cc1)[C@@H](C)O)[C@@H](C)O)[C@@H](C)CC)C(C)C)C(=O)N[C@@H](CC(N)=O)C(=O)N[C@@H](CCCCNC(=O)[C@@H](N)CCCCNC(=O)CC[C@H](NC(=O)CC[C@H](NC(=O)CC[C@H](NC(=O)CC[C@H](NC(=O)CC[C@H](NC(=O)CC[C@H](NC(=O)CCCCCCCCCCCCCCCCCCC(=O)O)C(=O)O)C(=O)O)C(=O)O)C(=O)O)C(=O)O)C(=O)O)C(=O)NC(C)(C)C(=O)N[C@H](C(=O)N[C@@H](CCCNC(=N)N)C(=O)N[C@@H](CCC(N)=O)C(=O)N[C@@H](CCCNC(=N)N)C(=O)N[C@@H](Cc1ccc(O)cc1)C(N)=O)[C@@H](C)O` [Compound 103, Y-Aib-E-G-T-F-T-S-D-Y-S-I-aMeL-L-E-K-Q-A-E-Aib-A-F-V-R-H-L-I-N-K(1,3)-Aib-T-R-Q-R-Y-NH2.C20DA-gGlu-gGlu-gGlu-gGlu-gGlu-gGlu-eLys(1,2)], the EC50 in data set [1] (setting [5]) amounted to 0.4 nM; in data set [1] (setting [7]), 0.6 nM; in data set [3], 0.2 nM; in data set [4] (setting [6]) it was 131 nM. Moreover, the solubility at 2 h in data set [2] stood at 9700 µg/mL.
As for `CC[C@H](C)[C@H](NC(=O)[C@H](CC(C)C)NC(=O)[C@H](Cc1c[nH]cn1)NC(=O)[C@H](CCCNC(=N)N)NC(=O)[C@@H](NC(=O)[C@H](Cc1ccccc1)NC(=O)[C@H](C)NC(=O)C(C)(C)NC(=O)[C@H](CCC(N)=O)NC(=O)[C@H](C)NC(=O)[C@H](CCC(N)=O)NC(=O)[C@H](CCCCN)NC(=O)[C@H](CC(=O)O)NC(=O)[C@H](CC(C)C)NC(=O)C(C)(C)NC(=O)[C@@H](NC(=O)[C@H](CO)NC(=O)[C@H](Cc1ccc(O)cc1)NC(=O)[C@H](CC(=O)O)NC(=O)[C@H](CO)NC(=O)[C@@H](NC(=O)[C@H](Cc1ccccc1)NC(=O)[C@@H](NC(=O)CNC(=O)[C@H](CCC(=O)O)NC(=O)C(C)(C)NC(=O)[C@@H](N)Cc1ccc(O)cc1)[C@@H](C)O)[C@@H](C)O)[C@@H](C)CC)C(C)C)C(=O)N[C@@H](CC(N)=O)C(=O)N[C@@H](CCCCNC(=O)[C@@H](N)CCCCNC(=O)CC[C@H](NC(=O)CC[C@H](NC(=O)CC[C@H](NC(=O)CC[C@H](NC(=O)CC[C@H](NC(=O)CC[C@H](NC(=O)CCCCCCCCCCCCCCCCC(=O)O)C(=O)O)C(=O)O)C(=O)O)C(=O)O)C(=O)O)C(=O)O)C(=O)NC(C)(C)C(=O)N[C@H](C(=O)N[C@@H](CCCNC(=N)N)C(=O)N[C@@H](CCC(N)=O)C(=O)N[C@@H](CCCNC(=N)N)C(=O)N[C@@H](Cc1ccc(O)cc1)C(N)=O)[C@@H](C)O` [Compound 105, Y-Aib-E-G-T-F-T-S-D-Y-S-I-Aib-L-D-K-Q-A-Q-Aib-A-F-V-R-H-L-I-N-K(1,3)-Aib-T-R-Q-R-Y-NH2.C18DA-gGlu-gGlu-gGlu-gGlu-gGlu-gGlu-eLys(1,2)], the EC50 in data set [1] (setting [5]) was found to be 0.3 nM; in data set [1] (setting [7]) it was 3.4 nM; in data set [3] it was 0.4 nM; in data set [4] (setting [8]), 19.9 nM. In addition, in data set [2], the solubility at 2 h was 8000 µg/mL.
Take `CC[C@H](C)[C@H](NC(=O)[C@H](CO)NC(=O)[C@H](Cc1ccc(O)cc1)NC(=O)[C@H](CC(=O)O)NC(=O)[C@H](CO)NC(=O)[C@@H](NC(=O)[C@H](Cc1ccccc1)NC(=O)[C@@H](NC(=O)CNC(=O)[C@H](CCC(=O)O)NC(=O)C(C)(C)NC(=O)[C@@H](N)Cc1ccc(O)cc1)[C@@H](C)O)[C@@H](C)O)C(=O)N[C@@H](CC(C)C)C(=O)N[C@@H](CC(C)C)C(=O)N[C@@H](CCC(=O)O)C(=O)N[C@@H](CCCCN)C(=O)N[C@@H](CCC(N)=O)C(=O)N[C@@H](C)C(=O)N[C@@H](CCC(N)=O)C(=O)NC(C)(C)C(=O)N[C@@H](C)C(=O)N[C@@H](Cc1ccccc1)C(=O)N[C@H](C(=O)N[C@@H](CCCNC(=N)N)C(=O)N[C@@H](Cc1c[nH]cn1)C(=O)N[C@@H](CC(C)C)C(=O)N[C@H](C(=O)N[C@@H](CC(N)=O)C(=O)N[C@@H](CCCCNC(=O)CC[C@H](NC(=O)CC[C@H](NC(=O)CC[C@H](NC(=O)CC[C@H](NC(=O)CC[C@H](NC(=O)CCCCCCCCCCCCCCCCC(=O)O)C(=O)O)C(=O)O)C(=O)O)C(=O)O)C(=O)O)C(=O)NC(C)(C)C(=O)N[C@H](C(=O)N[C@@H](CCCNC(=N)N)C(=O)N[C@@H](CCC(N)=O)C(=O)N[C@@H](CCCNC(=N)N)C(=O)N[C@@H](Cc1ccc(O)cc1)C(N)=O)[C@@H](C)O)[C@@H](C)CC)C(C)C` [Compound 122, Y-Aib-E-G-T-F-T-S-D-Y-S-I-L-L-E-K-Q-A-Q-Aib-A-F-V-R-H-L-I-N-K(1,3)-Aib-T-R-Q-R-Y-NH2.C18DA-gGlu-gGlu-gGlu-gGlu-gGlu(1,2)]: the EC50 in data set [1] (setting [5]) was 0.3 nM; in data set [3], 0.1 nM; in data set [4] (setting [8]) it was 60.8 nM. In addition, in data set [2], the solubility at 2 h stood at 3800 µg/mL.
